Measured values reported in patent publication US7879870B2, “Treatment of inflammatory and ulcerative diseases of the bowel with opioid antagonists” (priority 2006, dated 2011).
Entries after “also recorded” stand apart in the source; their conditions may differ.

Experiments:
[1] = test system: DSS-induced colitis in mice; experiment: DSS-induced colitis in mice: histological inflammation score of distal colon (H&E); assay type: in vivo, mouse
Experimental: (§1) Mice in each group (Normal or DSS) were randomly subdivided into three treatment groups of eight mice each. After 72 hours, mice were treated once daily for six consecutive days with a subcutaneous injection (0.1 mL) of one of the following: saline (control), 6.3 μg/kg naltrexone (“NTX”), or 350 μg/kg NTX (Sigma Chemicals, St. Louis, Mo.). On day 9, all animals were necropsied and their colons resected.
(§2) At necropsy, the entire colon was excised, measured in length, and bisected into proximal and distal portions. The proximal and distal colons were additionally divided for RNA extraction and histology. Each histology specimen was fixed in 10% neutral buffered formalin, paraffin embedded and sectioned for hematoxylin and eosin (“H&E”) staining. Specimens were examined microscopically and scored based upon the criteria established by Williams et al. by an investigator blinded to the treatment groups. Williams, et al., “Enhanced survival and mucosal repair after dextran sodium sulfate-induced colitis in transgenic mice that overexpress growth hormone,” Gastroenterology 120, 925-37 (2001). Briefly, a representative longitudinal section from each mouse was scored at six random fields for inflammation severity, extent of inflammation (mucosa, submucosa, transmural) and crypt damage. Each of these scores was weighted to reflect the percent involvement of the overall section and the weighted scores from each of the six fields were averaged to achieve an overall inflammation score for each mouse.
(§3) Results were calculated as mean±SEM. Statistical comparisons were performed between NTX treatment sub-groups and their corresponding saline control, as well as between the Normal and DSS groups, comparing corresponding treatments. Parametric analyses were performed (Minitab 13, State College, Pa.) using a modified Bonferroni method to correct for multiple comparisons to controls.

[2] = test system: mucin (Muc2), trefoil factor (TFF3), TGF-beta binding protein mRNA; experiment: Distal colon RNA of DSS mice, microarray and quantitative RT-PCR; assay type: in vivo, mouse
Description: (§4) Total RNA was extracted from the distal colon samples (using TRIZOL® available from Invitrogen Corp., Carlsbad, Calif.; TRIZOL® is a trademark of Molecular Research Center, Inc. of Cincinnati, Ohio) and subjected to microarray analysis using a 10K mouse microarray (MWG Biotech, High Point, N.C.) and a Packard Biosciences ScanArray 4000KL machine (Functional Genomics Core Facility of the Section of Research Resources, Penn State College of Medicine). To minimize the impact of variation among animals, RNA from individual mice was pooled within each treatment group. […] RNA from Normal+saline, DSS+6.3 μg/kg NTX, and DSS+350 μg/kg NTX were each tested versus DSS+saline. Data were analyzed with GenSpring 6 software (Agilent Technologies, Palo Alto, Calif.).
RNA (18S and 28S bands) was visualized using the Agilent 2100 Bioanalyzer (Agilent Technologies, Santa Clara, Calif.) and concentrations were adjusted. […] The concentration and quality of resulting cDNA was quantified and analyzed using the Agilent 2100 Bioanalyzer or spectroscopically with the NanoDrop ND-1000 (NanoDrop Technologies, Wilmington, Del.). […] PCR amplification and analysis were performed with the Applied Biosystems Sequence Detection System 7300 using the Relative Quantification (ddCt). […]

[3] = higher doses, i.e. 50 mg; cited from earlier work
beta-actin mRNA = experiment: Distal colon RNA of DSS mice, real-time RT-PCR; assay type: in vivo, mouse; details: DSS+NTX
Description: as §4
(§5) RNA (18S and 28S bands) was visualized using the Agilent 2100 Bioanalyzer (Agilent Technologies, Santa Clara, Calif.) and concentrations were adjusted. First strand cDNA was then produced from 1.0 μg of total RNA using random hexamer primers and the SuperScript III Reverse Transcription kit (Invitrogen). The concentration and quality of resulting cDNA was quantified and analyzed using the Agilent 2100 Bioanalyzer or spectroscopically with the NanoDrop ND-1000 (NanoDrop Technologies, Wilmington, Del.). Samples were standardized to 30 ng/μL and 60 ng of cDNA per sample was then used as a template for real-time PCR using a SYBR Green Master Mix (Qiagen, Valencia, Calif.). 18S rRNA primers (Eurogentec, San Diego, Calif.) and the following gene-specific primer sequences obtained from PrimerBank (pga.mgh.harvard.edu/primerbank) were used: beta-actin, 6671509a; IL-5, 6754336a; IL-6, 13642311a; IL-12, 6680395a; STAT3, 13277852a; STAT4, 6755670a; Muc2, 3452503a2; TFF3, 6755773a1; Palladin, 9828173a1; and TGF-beta BP, 7305243a1. To exclude the possibility of genomic DNA contamination, control reactions with no cDNA template were also performed for each gene-specific primer set. PCR amplification and analysis were performed with the Applied Biosystems Sequence Detection System 7300 using the Relative Quantification (ddCt). Amplification data for the genes of interest were normalized to 18S within each individual reaction. Triplicate reactions were performed and the resultant data from multiple runs were averaged.

STAT4 mRNA = experiment: Distal colon RNA of DSS mice, real-time RT-PCR; assay type: in vivo, mouse
Description: as §4, §5

IL-6 mRNA = experiment: Distal colon RNA of DSS mice, real-time RT-PCR; assay type: in vivo, mouse; details: DSS mice treated with naltrexone
Description: as §4, §5

STAT3 mRNA = experiment: Distal colon RNA of DSS mice, real-time RT-PCR; assay type: in vivo, mouse
Description: as §4, §5

IL-5 mRNA = experiment: Distal colon RNA of DSS mice, real-time RT-PCR; assay type: in vivo, mouse; details: DSS+NTX
Description: as §4, §5

IL-12 mRNA = experiment: Distal colon RNA of DSS mice, real-time RT-PCR; assay type: in vivo, mouse; details: DSS mice treated with naltrexone
Description: as §4, §5

[4] = test system: DSS-induced colitis in mice; experiment: DSS-induced colitis in mice: weight, food and water intake, modified DAI, colon length; assay type: in vivo, mouse
Description: Six to eight-week-old male C57 black/6J mice (Charles River Laboratories, Inc., Wilmington, Mass.) were randomly allocated into one of two groups of 24 mice each. Food and water were provided ad libitum. The first group (Normal) received normal drinking water and the second group (DSS) received water containing 2% dextran sulfate sodium having a molecular weight of 40,000 (TdB Consultancy AB, Uppsala, Sweden) for six days followed by normal water for three additional days and necropsy on day 9 (FIG. 5A). Each mouse was housed in an individual cage for accurate measurement of food and water intake. Animal weight, water intake, and food consumption were measured daily. Bedding was changed and fresh stool pellets were collected daily and analyzed for occult blood. The colitis disease activity index (DAI) was calculated for each mouse according to the system established by Murthy and colleagues. See, Murthy, et al., “Treatment of dextran sulfate sodium-induced murine colitis by intracolonic cyclosporin,” Dig. Dis. Sci. 38, 1722-34 (1993). Overt changes in stool consistency were rarely discerned so a modified DAI was calculated based on percent weight loss and stool hemoccult or presence of gross bleeding.
as §1, §2, §3

[5] = DSS mice treated with naltrexone

## O=C1CC[C@@]2(O)[C@H]3Cc4ccc(O)c5c4[C@@]2(CCN3CC2CC2)[C@H]1O5 [naltrexone]
[1]; DSS mice, 350 μg/kg
  Inflammation by histology compared to DSS+saline (in words): less inflammation; also recorded: improved
[1]; DSS+350 μg/kg NTX
  Crypt architecture and invading leukocytes compared to DSS+saline: improved crypt architecture and fewer invading leukocytes
[1]; DSS+NTX 6.3 and 350 μg/kg, trend did not reach statistical significance
  Inflammation scores of distal colon compared to DSS+saline: dose-dependent decrease in inflammation and damage
[1]; Normal mice (no DSS)
  Colonic inflammation, histology, Normal+saline versus Normal+NTX: No differences in colonic inflammation
[1]; naltrexone alone (no DSS)
  Mucosal integrity of the colon: did not alter the mucosal integrity of the colon
[2]; DSS animals, either 6.3 or 350 μg/kg
  Levels of Muc2, TFF3 and TGF-beta binding protein mRNAs, microarray: restored the levels of these mRNAs in DSS animals to varying extents
[2]; DSS+NTX animals
  Levels of Muc2, TFF3 and TGF-beta binding protein mRNAs, quantitative RT-PCR, versus Normal animals: not significantly different from Normal animals
[3]
  Liver transaminases: elevate liver transaminases
beta-actin mRNA
  Expression of beta-actin: not significantly changed
STAT4 mRNA; [5]
  STAT4 mRNA level versus Normal mice: still slightly higher than in the Normal mice
STAT4 mRNA; DSS mice, DSS+saline increased 8.03-fold
  STAT4 mRNA level, decrease after naltrexone treatment: greater than 50%
STAT4 mRNA; DSS-treated mice
  DSS-induced up-regulation of STAT4 expression (in words): reversed
IL-6 mRNA
  IL-6 mRNA level versus colitis-free mice: decreased to levels near or equal to that in mice without colitis; also recorded: not completely restored to those seen in the colitis-free animals
IL-6 mRNA; DSS+saline increased 73-fold
  IL-6 mRNA level versus DSS+saline: greatly reduced
STAT3 mRNA; [5]
  STAT3 mRNA level versus colitis-free Normal controls: statistically indistinguishable from colitis-free, Normal controls
STAT3 mRNA; DSS mice, DSS+saline increased 2.20-fold
  STAT3 mRNA level, decrease after naltrexone treatment: greater than 50%
STAT3 mRNA; DSS-treated mice
  DSS-induced up-regulation of STAT3 expression (in words): reversed
IL-5 mRNA
  Expression of IL-5: not significantly changed
IL-12 mRNA
  IL-12 mRNA level versus colitis-free mice: decreased to levels near or equal to that in mice without colitis; also recorded: restored mRNA expression to that seen in the colitis-free, Normal mice
IL-12 mRNA; DSS+saline increased three-fold
  IL-12 mRNA level versus DSS+saline: greatly reduced
[4]; DSS mice treated with naltrexone, still shorter than in untreated animals
  Colon length: more normal colon lengths
[4]; DSS mice, 350 μg/kg
  DAI scores / disease symptoms compared to DSS+saline (in words): lower DAI scores; also recorded: decreased
  Weight loss compared to DSS mice treated with saline: less weight loss; also recorded: decreased
[4]; DSS mice, naltrexone s.c. once daily from 72 hours
  Weight loss compared to DSS+saline: tended to be less
[4]; DSS mice, naltrexone treatment
  DAI scores of DSS mice (in words): A reduction in these DAI scores was evident
[4]; DSS+6.3 μg/kg NTX, p=0.02
  Weight loss compared to DSS+saline, statistical significance: only reached statistical significance on day 6
[4]; Normal mice (no DSS), NTX-treated
  Modified DAI scores: no evidence of colitis
[4]; day 6, DSS+350 μg/kg NTX, p=0.015
  DAI scores lower than DSS+saline mice: 55%
[4]; day 9, off DSS for three days
  Weight at necropsy among the three DSS sub-groups: no significant difference in weight
[4]; naltrexone treatment alone (Normal mice, no DSS)
  Food consumption: no effect on food consumption
